# Measurements taken from patent US20080311657A1, “Killing Human Lymphoma and Leukemia Cancer Cells and Tcr-Activated Normal Human Cells By Dopamine D1r Agonists” (priority 2005, published 2008).
# Where “and” joins values, the source holds several entries; their conditions need not be identical. Equal entries are not always repeated.
# Columns and labels:
# [1] = test system: Human Burkitt's B-Cell Lymphoma (Daudi); test: Cell death by LDH release (CytoTox 96); type: cell-based; conditions: 1 hour
# Experimental: (§1) Cell viability was tested afterwards.
# muscarinic receptors = conditions: cited from earlier work
# 5HT2 receptors = conditions: cited from earlier work
# [2] = test system: Human Chronic Myeloid Leukemia (CML, K-562); test: Cell death by LDH release (CytoTox 96); type: cell-based
# Experimental: as §1
# (§2) Tables 3 and 4 show results of experiments designed primarily for studying the kinetics of the effect (herein fenoldopam hydrobromide was tested only at a concentration range of 10^−4 M-10^−6 M), and indicate that already after 1 minute of fenoldopam hydrobromide addition, there is an increased LDH. Yet, the extent of death increased gradually with time (10, 30 and 60 minutes), and after 1 hour the cancer cells released dramatic levels of LDH, indicating massive cell death.
# [3] = test system: Human T-Cell Lymphoma (HuT-78); test: Cell death by LDH release (CytoTox 96); type: cell-based
# Experimental: as §1, §2
# 5HT1 receptors = conditions: cited from earlier work
# D2-like receptors = conditions: cited from earlier work
# α2-adrenoceptors = conditions: cited from earlier work
# α1 adrenoceptors = conditions: cited from earlier work
# β adrenoceptors = conditions: cited from earlier work
structure (smiles),measurement,setting,value
Oc1ccc(C2CNCCc3c2cc(O)c(O)c3Cl)cc1 (stereo not shown) [Fenoldopam],"LDH Release (OD), Average",[1]; Fenoldopam 10^−4M,0.9595 OD
same,"LDH Release (OD), OD Duplicates",[1]; Fenoldopam 10^−4M,0.961 OD and 0.958 OD
same,"LDH Release (OD), Average",[1]; Fenoldopam 10^−5M,1.0025 OD
same,"LDH Release (OD), OD Duplicates",[1]; Fenoldopam 10^−5M,0.99 OD and 1.015 OD
same,"LDH Release (OD), Average",[1]; Fenoldopam 10^−6M,0.526 OD
same,"LDH Release (OD), OD Duplicates",[1]; Fenoldopam 10^−6M,0.525 OD and 0.527 OD
same,"LDH Release (OD), Average",[1]; Fenoldopam 10^−7M,0.5365 OD
same,"LDH Release (OD), OD Duplicates",[1]; Fenoldopam 10^−7M,0.55 OD and 0.523 OD
same,"LDH Release (OD), Average",[1]; Fenoldopam 10^−8M,1.339 OD
same,"LDH Release (OD), OD Duplicates",[1]; Fenoldopam 10^−8M,1.316 OD and 1.362 OD
same,"LDH Release (OD), Average",[1]; Fenoldopam 10^−9M,0.899 OD
same,"LDH Release (OD), OD Duplicates",[1]; Fenoldopam 10^−9M,0.903 OD and 0.895 OD
same,Concentration of maximal killing,"[1]; LDH release, Table 2",10^−8 M
same,"Affinity, in words",muscarinic receptors,no significant affinity
same,"Affinity, in words",5HT2 receptors,no significant affinity
same,"Release of LDH (OD), Average OD",[2]; Fenoldopam 10^−4M 1 Min,1.081 OD
same,"Release of LDH (OD), OD Duplicates",[2]; Fenoldopam 10^−4M 1 Min,1.081 OD
same,"Release of LDH (OD), Average OD",[2]; Fenoldopam 10^−4M 10 Min,0.863 OD
same,"Release of LDH (OD), OD Duplicates",[2]; Fenoldopam 10^−4M 10 Min,0.868 OD and 0.858 OD
same,"Release of LDH (OD), Average OD",[2]; Fenoldopam 10^−4M 30 Min,2.7755 OD
same,"Release of LDH (OD), OD Duplicates",[2]; Fenoldopam 10^−4M 30 Min,2.737 OD and 2.814 OD
same,"Release of LDH (OD), Average OD",[2]; Fenoldopam 10^−4M 60 Min,2.27 OD
same,"Release of LDH (OD), OD Duplicates",[2]; Fenoldopam 10^−4M 60 Min,2.733 OD and 1.807 OD
same,"Release of LDH (OD), Average OD",[2]; Fenoldopam 10^−5M 60 Min,2.9645 OD
same,"Release of LDH (OD), OD Duplicates",[2]; Fenoldopam 10^−5M 60 Min,2.907 OD and 3.022 OD
same,"Release of LDH (OD), Average OD",[2]; Fenoldopam 10^−6M 60 Min,0.7625 OD
same,"Release of LDH (OD), OD Duplicates",[2]; Fenoldopam 10^−6M 60 Min,0.759 OD and 0.766 OD
same,"Release of LDH (OD), Average OD",[3]; Fenoldopam 10^−4M 1 Min,0.8135 OD
same,"Release of LDH (OD), OD Duplicates",[3]; Fenoldopam 10^−4M 1 Min,0.786 OD and 0.841 OD
same,"Release of LDH (OD), Average OD",[3]; Fenoldopam 10^−4M 10 Min,1.4355 OD
same,"Release of LDH (OD), Average OD",[3]; Fenoldopam 10^−4M 30 Min,3.087 OD
same,"Release of LDH (OD), OD Duplicates",[3]; Fenoldopam 10^−4M 30 Min,3.015 OD and 3.159 OD
same,"Release of LDH (OD), Average OD",[3]; Fenoldopam 10^−4M 60 Min,2.8775 OD
same,"Release of LDH (OD), OD Duplicates",[3]; Fenoldopam 10^−4M 60 Min,2.688 OD and 3.067 OD
same,"Release of LDH (OD), Average OD",[3]; Fenoldopam 10^−5M 60 Min,2.9465 OD
same,"Release of LDH (OD), OD Duplicates",[3]; Fenoldopam 10^−5M 60 Min,2.907 OD and 3.022 OD
same,"Release of LDH (OD), Average OD",[3]; Fenoldopam 10^−6M 60 Min,0.7625 OD
same,"Release of LDH (OD), OD Duplicates",[3]; Fenoldopam 10^−6M 60 Min,0.759 OD and 0.766 OD
same,"Affinity, in words",5HT1 receptors,no significant affinity
same,"Affinity, in words",D2-like receptors,no significant affinity
same,"Affinity, in words",α2-adrenoceptors,moderate affinity
same,"Affinity, in words",α1 adrenoceptors,no significant affinity
same,"Affinity, in words",β adrenoceptors,no significant affinity
